Holding throughout (assay): NCI-60 cell line screen, 48 h
The subject of test [1] is SR leukemia.
Test [2] deals with HL-60(TB) leukemia.
Test [3] deals with HS 578T breast.
Test [4] deals with IGROV1 ovarian.
Test [5] has as its system NCI-H23 lung.
Test [6] relates to OVCAR-4 ovarian.
Test [7] has as its system PC-3 prostate.
Test [8] deals with SK-MEL-2 melanoma.
Test [9] relates to MOLT-4 leukemia.
The test system of test [10] is HCT-116 colon.

Molecules are shown by their SMILES.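 Compound exposure: 48 hours, 5 concentrations, 96-well plates. Abbreviation: GI50, concentration required for 50% inhibition of growth. TGI: total growth inhibition.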

Consider `CC(=O)/C(=C/c1ccccc1)C(=O)CC(C)C`, for which the GI50 is 2.46 µM in test [1]; 22.1 µM in [2]; 3.89 µM in test [3]; 16.4 µM in [4]; 18.4 µM in [5]; 17.6 µM in test [6]. Also, the GI50 in [7] was 25.6 µM; in test [8] it was 24.5 µM; in test [9], 3.59 µM; in test [10] it was 2.05 µM. In addition, the TGI came to 7.37 µM in test [1]; 90.2 µM in test [2]; 21.2 µM in [3]; 33.6 µM in test [4]; 43.1 µM in test [5]; 41.4 µM in test [6]. The TGI in test [7] was 93.6 µM; in test [8], 60.7 µM; in test [9] it was 79.4 µM; in test [10], 3.97 µM.

For the compound `Oc1ccc(Nc2ccc3ccccc3c2)cc1`, the GI50 in test [1] is 3.32 µM; in test [2], 2.66 µM; in test [3], 12.1 µM; in [4], 3.75 µM; in test [5] it was 10.9 µM; in test [6], 8.64 µM. Besides, the GI50 in test [7] was 4.41 µM; in test [8] it was 15.3 µM; in [9] it was 2.75 µM; in test [10] it was 9.23 µM. Also, the TGI was 38.3 µM in test [1]; 21.3 µM in test [2]; 57.1 µM in [3]; 18 µM in test [4]; 55.3 µM in test [5]; over 100 µM in test [6]. In addition, the TGI in test [7] stood at 68.2 µM; in [8] it was 46 µM; in test [9] it was 32.1 µM; in test [10], 24 µM.

On to `Cc1nc2c(c(N3CCCc4ccccc43)n1)CCC2`, for which the GI50 in test [1] is under 0.01 µM; in [2] it was under 0.01 µM; in test [3] it was under 0.01 µM; in test [4] it was 0.0249 µM; in [5] it was under 0.01 µM; in test [6] it was 0.0406 µM. The GI50 in [7] is under 0.01 µM; in test [8], 0.016 µM; in test [9], under 0.01 µM; in test [10] it was under 0.01 µM. For the same compound, the TGI is 13.1 µM in test [1]; over 100 µM in test [3]; over 100 µM in [4]; over 100 µM in test [5]; over 100 µM in test [6]; over 100 µM in [7]. The values for the TGI in test [8], in test [9] and in test [10] were over 100 µM, 3.07 µM and 20.6 µM, respectively.

`Cc1c(-c2ccc(C3CCCCC3)cc2)nc2ccc(F)cc2c1C(=O)O`: the GI50 in [1] was 0.0629 µM; in [2] it was 0.335 µM; in [3] it was 34.8 µM; in [4], 1 µM; in [5] it was 6.54 µM; in [6] it was 38 µM. Also, the GI50 in [7] is 0.0797 µM; in [8], over 45.9 µM; in [9], 0.0679 µM; in test [10], 0.0508 µM. Moreover, the TGI in test [1], in test [2], in test [3], in test [4], in [5] and in test [6] was over 100 µM each time. Moreover, the TGI in test [7], in test [8], in test [9] and in test [10] was over 100 µM each time.

As to `C=C(CN1CCN(c2ccc(C(F)(F)F)cc2)CC1)c1ccc(C(=O)Nc2ccccc2N)cc1`, the GI50 is 1.1 µM in [1]; 0.0732 µM in test [2]; 22.6 µM in test [3]; 18.2 µM in test [4]; 9.49 µM in test [5]; 5.68 µM in test [6]. In addition, the GI50 in [7] is 1.29 µM; in test [8], over 100 µM; in [9], 0.153 µM; in test [10] it was 11.4 µM. Moreover, the TGI in [1] was over 100 µM; in test [2], 0.279 µM; in test [3] it was over 100 µM; in [4] it was over 100 µM; in test [5], over 100 µM; in [6] it was over 100 µM. Further, the TGI is over 65.7 µM in test [7], over 100 µM in [8], 1.06 µM in test [9] and over 100 µM in test [10].

In the case of `COc1cc2c3cc1Oc1c(OC)c(OC)cc4c1C(=NCC4)Cc1ccc(cc1)Oc1cc(ccc1O)C[C@H]3N(C)CC2`, the TGI in [1] came out at 31.2 µM; in test [2] it was 96.5 µM; in test [3], 63.7 µM; in test [4], 94.4 µM; in test [5], 44 µM; in test [6], 40.7 µM. For the same compound, the TGI in test [7] was 42.5 µM; in test [8] it was 31.1 µM; in test [9] it was 66.2 µM; in [10] it was 26.8 µM.

For the compound `O=C(/C=C/c1ccc(Cl)cc1)c1ccccc(=O)c1O`, the TGI was over 100 µM in [1]; 2.04 µM in test [2]; 31.1 µM in [3]; 15.8 µM in [4]; 18.1 µM in test [5]; 17.9 µM in test [6]. In addition, the TGI amounted to 20 µM in test [7], 11.8 µM in test [8], 16.2 µM in test [9] and 10.4 µM in test [10].

For `COc1ccc(C=Nc2c(C(=O)Nc3cccc(Cl)c3C)sc3nc(C)c(C(=O)/C=C/c4ccc(OC)cc4)cc23)cc1`, the GI50 in test [1] is 0.421 µM; in test [2], 1.27 µM; in [3], 0.458 µM; in test [4] it was 1.32 µM; in test [5], 0.917 µM; in [7], 0.281 µM. In addition, the GI50 in test [8] is 0.98 µM; in test [9] it was 3.68 µM; in test [10] it was 0.362 µM. In addition, the TGI in test [1] is over 50 µM; in [2], over 22 µM; in [3] it was 7.67 µM; in [4] it was over 50 µM; in test [5], 17.1 µM; in test [6], over 50 µM. Further, the TGI was over 50 µM in test [7], 36.1 µM in test [8], over 50 µM in [9] and over 50 µM in test [10].

For the origin of these results see PubChem BioAssay (NCI).
